Results on five compounds are retold here after patent US20110190389A1, “OXYLIPINS FROM LONG CHAIN POLYUNSATURATED FATTY ACIDS AND METHODS OF MAKING AND USING THE SAME” (priority 2007, published 2011).

Experiment [1] relates to macrophage chemotactic protein-1 (MCP-1). Description: Mouse dorsal air pouch model: MCP-1 in exudates. The settings on record: 100 ng docosanoid intra-pouch; for secretion of MCP-1 in air pouch exudates: 100 ng TNFα, 4 hours; for inhibition of MCP-1 secretion versus indomethacin: indomethacin 2 mg/kg i.p. Type of experiment: in vivo, C57/B16 mice. An excerpt:
(§1) Pure 17R-hydroxy DHA (17R-HDHA) was purchased from Caymen Chemicals (Ann Arbor, Mich.). Docosanoids 17-hydroxy-DPAn-6 (17-HDPAn-6) and 10,17-dihydroxyDPAn-6 (10,17-HDPAn-6) were synthesized biogenically from DPAn-6 (NuChek Prep, Elysian, Minn.) using soybean 15-lipoxygenase (Sigma-Aldrich) and purified by HPLC as described in Example 2. Organic solvents were evaporated and the compounds were re-dissolved in phosphate buffered saline (PBS), filter sterilized and concentrations were adjusted to 1000 ng/ml using molar extinction coefficients of 28,000 and 40,000 M^−1 cm^−1 for the mono- and dihydroxy docosanoids, respectively. Female C57/B16 mice (n=10 mice per group) were injected with sterile air subcutaneously in the back to initiate dorsal air pouches. Six days later, 0.9 ml sterile PBS followed by 100 ng docosanoid in 0.1 ml PBS or PBS alone were administered by intra-pouch injection. This injection was followed within 5 min by intra-pouch injection of 100 ng of mouse recombinant TNFα (Peprotech, Inc, NJ, USA) in 0.1 ml PBS. Control animals received no TNFα. As a positive control, 2 mg/kg indomethacin (Calbiochem, San Diego, Calif.) was administered intraperitoneally 30 min prior to administration of TNFα. Four hours after TNFα administration, air pouch exudates were removed and cells were stained with Turk's solution and counted. Exudates were frozen for later cytokine analyses using commercial ELISA kits. Bars represent group (n=10) means (±stdev). Groups were compared using Student's t test, with p values indicated.

Experiment [2] relates to total cell migration into air pouch exudates. Briefly: Mouse dorsal air pouch model: total cell migration into exudates. The experiment is classed as in vivo, C57/B16 mice. As to conditions: 100 ng docosanoid intra-pouch; for total number of cells in the pouch: 100 ng TNFα, 4 hours.
Excerpt: as §1

Another experiment has as its system human T lymphocytes. Briefly: TNFα secretion by human T lymphocytes stimulated with anti-CD3/anti-CD28 antibodies. Type of experiment: cell-based. The settings on record: 6 hrs pretreatment, 41 hrs on anti-CD3/anti-CD28; difference p=0.037 at 10 nM. Here is the method: FIG. 22A: Effect of Docosanoids on TNFα Secretion by Human T Lymphocytes. The assay was performed essentially as described in Ariel et al, 2005. Briefly, human peripheral blood mononuclear cells were isolated from venous blood by Ficoll-Paque™ Plus (Amersham biosciences) gradient. T lymphocytes were isolated using a human T cell enrichment column (R&D Systems) per manufacturer's instructions. Purified T cells were treated with 10,17-dihydroxy DPAn-6 or 10,17-dihydroxy DHA or vehicle (0.05% ethanol) in RPMI-1640 media containing 10% heat inactivated fetal bovine serum for 6 hrs at 37° C. Lymphocytes (200,000 cells in 200 μl media per well) were then transferred to 96-well plates coated with both anti-CD3 antibody and anti-CD28 antibody (100 μl of 2 μg/ml of each antibody overnight to coat wells) and incubated for 41 hrs. TNFα concentrations were determined in cell supernatants by ELISA (R&D Systems). Group means±stdev (n=4) were compared by Student's t test. *p<0.05 and **p<0.01 compared to control; # indicates statistical difference (p=0.037) between the groups treated with 10,17-dihydroxy DPAn-6 and 10,17-dihydroxy DHA at the 10 nM concentrations.

The next experiment has as its system IL-1β. Briefly: Mouse dorsal air pouch model: IL-1β in exudates. The experiment is classed as in vivo, C57/B16 mice. As to conditions: 100 ng docosanoid intra-pouch; for secretion of IL-1β in air pouch exudates: 100 ng TNFα, 4 hours.
Excerpt: as §1

The test system of the next experiment is hind paw edema. Briefly: Carrageenan-induced rat paw edema after feeding LCPUFA diets. The experiment is classed as in vivo, Sprague Dawley rats. The settings on record: diet 4 weeks, 1% carrageenan, 3 hours post-injection, Day 28. As for the experimental part:
Adult, male, Sprague Dawley rats (n=10/treatment group) were fed modified AlN-76 diets formulated to include 1.2% DHA, 1.2% DHA+0.44% DPAn-6, or 1.2% DHA+0.46% arachidonic acid (ARA) for 4 weeks. Carrageenan (1%) was used to induce hind paw edema on Day 14 (left paw) and Day 28 (right paw) of feeding. Edema was measured plethysmographically using water displacement 3 hours post-injection. Similar results were obtained on day 14. *p≦0.05.

In experiment [3] the test system is inflammatory cytokine production. Description: Consumption of LCPUFA oils: inflammatory cytokine and eicosanoid production. The settings on record: consumption of the oil; DHA dose approximately three times higher in DHA-alone oil. Type of experiment: in vivo.
The target in a further experiment is T1, Soybean 15-lipoxygenase (Glycine max, UniProt P08170).
T1 construct: purchased Sigma-Aldrich
T1 sequence (P08170 1-839): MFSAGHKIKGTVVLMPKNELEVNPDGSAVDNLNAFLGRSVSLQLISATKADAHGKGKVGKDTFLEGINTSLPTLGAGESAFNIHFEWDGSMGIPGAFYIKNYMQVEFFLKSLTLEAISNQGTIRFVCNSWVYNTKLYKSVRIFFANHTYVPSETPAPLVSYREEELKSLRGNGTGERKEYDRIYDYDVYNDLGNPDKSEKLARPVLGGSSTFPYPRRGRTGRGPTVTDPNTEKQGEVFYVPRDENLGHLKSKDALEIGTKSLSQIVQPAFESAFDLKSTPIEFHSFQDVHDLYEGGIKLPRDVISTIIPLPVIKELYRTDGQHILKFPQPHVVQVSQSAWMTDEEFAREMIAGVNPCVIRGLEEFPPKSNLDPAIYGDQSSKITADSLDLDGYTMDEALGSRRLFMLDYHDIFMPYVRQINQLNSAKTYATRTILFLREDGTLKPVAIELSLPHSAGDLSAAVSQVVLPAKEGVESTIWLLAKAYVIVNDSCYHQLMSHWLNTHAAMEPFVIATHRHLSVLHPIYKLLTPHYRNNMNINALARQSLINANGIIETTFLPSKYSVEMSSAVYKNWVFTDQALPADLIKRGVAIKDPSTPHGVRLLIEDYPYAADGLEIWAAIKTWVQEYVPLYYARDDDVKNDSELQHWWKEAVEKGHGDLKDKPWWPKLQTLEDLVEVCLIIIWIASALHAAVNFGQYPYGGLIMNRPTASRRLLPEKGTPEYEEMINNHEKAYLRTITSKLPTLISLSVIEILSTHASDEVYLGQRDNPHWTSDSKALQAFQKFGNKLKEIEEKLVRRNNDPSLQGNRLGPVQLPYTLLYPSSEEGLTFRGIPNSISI
Briefly: 15-lipoxygenase reaction with fatty acid substrates (conversion to conjugated diene). Type of experiment: biochemical. The settings on record: 100 μM fatty acid, 4 μg/ml enzyme, 0.05 M sodium borate pH 9.0, 0° C, absorbance 238 nm. As for the experimental part:
Soybean 15-lipoxygenase (Sigma-Aldrich, St. Louis, Mo.) at a final concentration of 4 μg/ml was mixed into 100 μM solutions of DHA, DPAn-6, or DPAn-3 (NuChek Prep, Elysian, Minn.) in 0.05 M sodium borate buffer, pH 9.0, and the reaction mixtures were incubated at 0° C. Appearance of the mono-hydroxy conjugated diene derivatives of the fatty acids was monitored through absorbance at 238 nm. Conjugated diene products were quantified using an extinction coefficient of 28,000 M^−1 cm^−1 (Shimizu et al; Methods in Enzymology, 1990 Vol 187, 296-306). As shown in Example. 1, 100% of the DPAn-6 was efficiently converted to its conjugated diene derivative under these conditions, whereas about 85% of DPAn-3 and 50% of DHA were converted to their respective conjugated diene (mono-hydroxy) derivative by the 15-lipoxygenase. No appreciable accumulation of the dihydroxy derivatives occurred under these reaction conditions.

For 10,17-dihydroxy DPAn-6, in experiment [1], the “secretion of MCP-1 in air pouch exudates” value is given as “significant reductions” and the “inhibition of MCP-1 secretion versus indomethacin” value is listed as “larger inhibition of MCP-1 secretion than indomethacin”. For the same compound, the “total number of cells in the pouch” value in experiment [2] was “significant reductions”. Also, the “reducing TNFα secretion by T lymphocytes, versus DHA analog” value in the experiment on human T lymphocytes was “more potent than the DHA analog”. Also, the “secretion of IL-1β in air pouch exudates” value in the experiment with IL-1β is reported as “significant reductions”. Further, the “reduction of IL-1β versus comparators” value with IL-1β (indomethacin 2 mg/kg i.p.) is listed as “significantly larger than with that produced by either the DHA oxylipin derivative or indomethacin”.

For the compound `CCCCCC(O)/C=C/C=C\C/C=C\C/C=C\C/C=C\CCC(=O)O` (centres unmarked) [17-hydroxy DPAn-6], in experiment [1], the “secretion of MCP-1 in air pouch exudates” value is recorded as “significant reductions” and the “inhibition of MCP-1 secretion versus indomethacin” value is recorded as “larger inhibition of MCP-1 secretion than indomethacin”. In addition, the “total number of cells in the pouch” value in experiment [2] is “significant reductions”. The “potency in reducing cell infiltration versus comparators” value in experiment [2] (indomethacin 2 mg/kg i.p.) is “more potent than both 17R-hydroxy DHA and indomethacin”. Also, in the experiment with IL-1β, the “secretion of IL-1β in air pouch exudates” value was “significant reductions”.

As to `CCCCC/C=C\C/C=C\C/C=C\C/C=C\CCCC(=O)O` [ARA, arachidonic acid], the edema volume entry in the experiment on hind paw edema is “reversed the anti-inflammatory activity of DHA”.

With `CC/C=C\C/C=C\C/C=C\C/C=C\C/C=C\C/C=C\CCC(=O)O` [DHA, docosahexaenoic acid, reference compound], in experiment [3], the “reduction in inflammatory cytokine production” value is recorded as 13-29%.

Regarding `CC/C=C\C/C=C\C/C=C\C/C=C\C/C=C\CCCCCC(=O)O` [DPAn-3, docosapentaenoic acid (C22:5n-3)], on Soybean 15-lipoxygenase, the “converted to conjugated diene (mono-hydroxy) derivative by the 15-lipoxygenase” value is recorded as “about 85%”.
